Some results are limits rather than exact numbers.

The results in this text go back to ChEMBL document CHEMBL3272044, “Cholinergic compounds. 9. Cyclohexane analogues of deoxamuscarine and derivatives” (J Med Chem, 1977).

The species entered for this test is Cavia porcellus. The experiment in a line: Activity at muscarinic receptor in guinea pig terminal ileum assessed as compound required for 50% effect relative to acetylcholine. It counts as tissue-based.
`CC1C[C@H](C[N+](C)(C)C)CC1=O` (some centres not stated): the Ratio is 0.5.
In the case of `C[N+](C)(C)C[C@H]1CC[C@@H](O)C1`, the Ratio was found to be 3590.
Turning to `C[N+](C)(C)C[C@H]1CCC(=O)C1`, the Ratio was 50.
Regarding `C[C@H]1C[C@H](C[N+](C)(C)C)C[C@H]1O`, the Ratio worked out at 454.
In the case of `C[C@H]1C[C@H](C[N+](C)(C)C)C[C@@H]1O`, the Ratio worked out at 100.
On to `C[N+](C)(C)C[C@H]1CCCC(=O)C1`, for which the Ratio came to 507.
As to `C[N+](C)(C)C[C@H]1CC[C@H](O)C1`, the Ratio was found to be 221.
As for `C[C@@H]1C[C@H](C[N+](C)(C)C)C[C@H]1O`, the Ratio was found to be 9.8.
As for `C[C@@H]1C[C@H](C[N+](C)(C)C)C[C@@H]1O`, the Ratio came to 500.
As to `C[N+](C)(C)CC1CCCCC1`, the Ratio came out at 203.
The result for `C[N+](C)(C)CC1CC=CC1` reads 11; that for `C[N+](C)(C)C[C@H]1CCC[C@H](O)C1` (relative stereo), 2900; that for `C[N+](C)(C)C[C@@H]1CC=CCC1`, 269.
The result for `C[C@H]1CC[C@@H](C[N+](C)(C)C)C1` reads 100; that for `C[N+](C)(C)CC1CCCC1`, 16; that for `CC1=CC[C@@H](C[N+](C)(C)C)C1`, 30.
The result for `C[N+](C)(C)C[C@H]1CCC[C@@H](O)C1` (relative stereo) reads above 10000.
